Tested on: SARS-CoV-2
Test: microbe, parasite or virus in culture
Conditions: Severe acute respiratory syndrome coronavirus 2, Vero C1008, 48 h

Row | Compound | IC50 [µM] | IC50 (read-out: pIC50 (converted)) [µM]
1 | C[C@@H](Oc1cc(-c2cnn(C3CCNCC3)c2)cnc1N)c1c(Cl)ccc(F)c1Cl [CRIZOTINIB] | > 20 | > 20
2 | CC(C)(N)Cc1ccc(Cl)cc1 [CHLORPHENTERMINE] | > 20 | > 20
3 | Nc1nc(NC2CC2)c2ncn([C@H]3C=C[C@@H](CO)C3)c2n1 [ABACAVIR] | > 20 | > 20
4 | CC(C)(N)C(=O)N[C@H](COCc1ccccc1)C(=O)N1CCC2(CC1)CN(S(C)(=O)=O)c1ccccc12 [IBUTAMOREN] | > 20 | > 20
5 | C=C(C)[C@@H]1CC[C@]2(CO)CC[C@]3(C)[C@H](CC[C@@H]4[C@@]5(C)CC[C@H](O)C(C)(C)[C@@H]5CC[C@]43C)[C@@H]12 [BETULIN] | > 20 | > 20
6 | CC(C)OC(=O)[C@H](C)NP(=O)(OC[C@H]1O[C@@H](n2ccc(=O)[nH]c2=O)[C@](C)(Cl)[C@@H]1O)Oc1ccccc1 (some centres undefined) | > 20 | > 20
7 | COc1ccc2c(c1)c(CC(=O)NO)c(C)n2C(=O)c1ccc(Cl)cc1 [OXAMETACIN] | > 20 | > 20
8 | CN(CCO)CC(O)Cn1cnc2c1c(=O)n(C)c(=O)n2C (centres undefined) [XANTHINOL] | > 20 | > 20
9 | CC(=O)O[C@H]1C[C@H](O[C@H]2[C@@H](O)C[C@H](O[C@H]3[C@@H](O)C[C@H](OC4CCC5(C)C(CCC6C5CCC5(C)C(C7=CC(=O)OC7)CCC65O)C4)O[C@@H]3C)O[C@@H]2C)O[C@H](C)[C@H]1O[C@@H]1O[C@H](CO)[C@@H](O)[C@H](O)[C@H]1O (some centres undefined) | > 20 | > 20
10 | Cc1ccc(=O)n(-c2ccccc2)c1 [PIRFENIDONE] | > 20 | > 20
11 | OCCN(CCO)c1nc(N2CCCCC2)c2nc(N(CCO)CCO)nc(N3CCCCC3)c2n1 [DIPYRIDAMOLE] | > 20 | > 20
12 | CC(C)c1nc(N(C)S(C)(=O)=O)nc(-c2ccc(F)cc2)c1/C=C/C(O)CC(O)CC(=O)O (centres undefined) | > 20 | > 20
13 | O=C1NC(=O)[C@H](c2cn3c4c(cccc24)CCC3)[C@H]1c1c[nH]c2ccccc12 | > 20 | > 20
14 | NC[C@@H]1O[C@H](O[C@H]2[C@@H](O)[C@H](O[C@@H]3[C@@H](O)[C@H](N)C[C@H](N)[C@H]3O[C@H]3O[C@H](CN)[C@@H](O)[C@H](O)[C@H]3N)O[C@@H]2CO)[C@H](N)[C@@H](O)[C@@H]1O [FRAMYCETIN] | > 20 | > 20
15 | Cc1cn(-c2cc(NC(=O)c3ccc(C)c(Nc4nccc(-c5cccnc5)n4)c3)cc(C(F)(F)F)c2)cn1 [NILOTINIB] | > 20 | > 20
16 | COC(=O)CCc1ccc(OCC(O)CNC(C)C)cc1 (centres undefined) [ESMOLOL] | > 20 | > 20
17 | O=c1[nH]c(=O)n(C2CCCO2)cc1F (centres undefined) [TEGAFUR] | > 20 | > 20
18 | CCC(C)(C)/N=C(\NC#N)Nc1cccnc1 | > 20 | > 20
19 | O=C(c1ccc(F)cc1)C1CCN(CCCCn2c(=O)[nH]c3ccccc3c2=O)CC1 [BUTANSERIN] | > 20 | > 20

Row | Compound | IC50 [µM] | IC50 (read-out: pIC50 (converted)) [µM]
20 | CCOC(=O)C1=C[C@]2(CC)CCCN3CCc4c(n1c1ccccc41)[C@@H]32 [VINPOCETINE] | > 20 | > 20
21 | COc1cc(F)c(C(C)C)cc1-c1ccc(C(F)(F)F)cc1CN1C(=O)O[C@H](c2cc(C(F)(F)F)cc(C(F)(F)F)c2)[C@@H]1C [ANACETRAPIB] | > 20 | > 20
22 | C[C@@H](O[C@H]1OCCN(Cc2n[nH]c(=O)[nH]2)[C@H]1c1ccc(F)cc1)c1cc(C(F)(F)F)cc(C(F)(F)F)c1 [APREPITANT] | > 20 | > 20
23 | CCCCOc1ccc(OCCCN2CCOCC2)cc1 [PRAMOXINE] | > 20 | > 20
24 | C[C@H]1O[C@@H](Oc2c(-c3ccc(O)c(O)c3)oc3cc(O)cc(O)c3c2=O)[C@@H](O)[C@@H](O)[C@@H]1O | > 20 | > 20
25 | C[C@@H](O)[C@H]1C(=O)N2C(C(=O)O)=C(S[C@@H]3CN[C@H](C(=O)N(C)C)C3)[C@H](C)[C@H]12 [MEROPENEM] | > 20 | > 20
26 | Cc1ccc(C(=O)N(CCCN)[C@@H](c2nc3cc(Cl)ccc3c(=O)n2Cc2ccccc2)C(C)C)cc1 [ISPINESIB] | > 20 | > 20
27 | CC(=O)c1cnc2ccc(-c3cc(Cl)c(O)c(Cl)c3)nc2c1N[C@H]1CC[C@H](CN(C)C)CC1 | > 20 | > 20
28 | NCCO [MONOETHANOLAMINE] | > 20 | > 20
29 | CN(C(=O)C(c1ccccc1)c1ccccc1)[C@H](CN1CC[C@H](O)C1)c1ccccc1 [ASIMADOLINE] | > 20 | > 20
30 | Nc1nc(OCc2cc(Br)cs2)c2[nH]cnc2n1 [LOMEGUATRIB] | > 20 | > 20
31 | CC(=O)OC(C)C[N+](C)(C)C (centres undefined) [METHACHOLINE] | > 20 | > 20
32 | CCCCCCCC/C=C\CCCCCCCC(=O)O [OLEIC ACID] | > 20 | > 20
33 | C[C@]12CCC(=O)C[C@@H]1CC[C@@H]1[C@@H]2CC[C@]2(C)[C@@H](O)CC[C@@H]12 [STANOLONE] | > 20 | > 20
34 | CC(C)(C)NC(=O)c1ccc(Oc2cc(F)c(CC(=O)O)cc2Cl)c(NS(=O)(=O)c2ccc(C3CC3)cc2Cl)c1 [VIDUPIPRANT] | > 20 | > 20
35 | Cn1c([N+](=O)[O-])cnc1/C=C/c1ccnc(N)n1 [AZANIDAZOLE] | > 20 | > 20
36 | C[C@@H]1C(=O)O[C@H]2[C@H](O)[C@]34[C@@H]5OC(=O)[C@]3(O[C@@H]3OC(=O)[C@H](O)C34C(C(C)(C)C)C5O)[C@@]12O (some centres undefined) | > 20 | > 20
37 | N#C[C@@H]1C[C@@H]2C[C@@H]2N1C(=O)[C@@H](N)C12CC3CC(CC(O)(C3)C1)C2 [SAXAGLIPTIN ANHYDROUS] | > 20 | > 20
38 | O=C(O)[C@H]1C2CCC(CC2)[C@@H]1Nc1nc(-c2c[nH]c3ncc(F)cc23)ncc1F [PIMODIVIR] | > 20 | > 20

Row | Compound | IC50 [µM] | IC50 (read-out: pIC50 (converted)) [µM]
39 | CCC1(CC(=O)O)OCC(Cc2ccccc2)c2c1[nH]c1ccccc21 (centres undefined) [PEMEDOLAC] | > 20 | > 20
40 | COc1cc2nc(N3CCN(C(=O)C4CCCO4)CC3)nc(N)c2cc1OC (centres undefined) [TERAZOSIN] | > 20 | > 20
41 | COc1ccc(/C=C2\CCCN=C2c2cccnc2)c(OC)c1 [GTS-21] | > 20 | > 20
42 | CNC(=C[N+](=O)[O-])NCCSCc1ccc(CN(C)C)o1 [RANITIDINE] | > 20 | > 20
43 | COc1cc(OC)c2ccc(=O)oc2c1 [CITROPTEN] | > 20 | > 20
44 | CCOC(=O)N(Cc1ccccc1)C1CC1 [ENCYPRATE] | > 20 | > 20
45 | Cc1ccccc1N1C(=O)c2cc(S(N)(=O)=O)c(Cl)cc2NC1C (centres undefined) [METOLAZONE] | > 20 | > 20
46 | COc1ccc(S(=O)(=O)N2c3ccc(Cl)cc3[C@](O)(c3ccccc3Cl)[C@@H]2C(=O)N2CCC[C@H]2C(N)=O)cc1OC [RELCOVAPTAN] | > 20 | > 20
47 | CNC(C)CCC=C(C)C (centres undefined) [ISOMETHEPTENE] | > 20 | > 20
48 | NS(=O)(=O)c1cc(C(=O)O)c(NCc2ccco2)cc1Cl [FUROSEMIDE] | > 20 | > 20
49 | CCCCCCc1ccc(O)cc1O [HEXYLRESORCINOL] | > 20 | > 20
50 | CCC[C@H](NC(=O)[C@@H]1[C@H]2CCC[C@H]2CN1C(=O)[C@@H](NC(=O)[C@@H](NC(=O)c1cnccn1)C1CCCCC1)C(C)(C)C)C(=O)C(=O)NC1CC1 | > 20 | > 20
51 | COC(=O)C1=CCCN(C)C1 [ARECOLINE] | > 20 | > 20
52 | N[C@@H](Cc1ccccc1)C(=O)O [PHENYLALANINE] | > 20 | > 20
53 | CNC(=N)NC(=O)Nc1c(C)cccc1C [LIDAMIDINE] | > 20 | > 20
54 | Cn1c(=O)cc(N2CCC[C@@H](N)C2)n(Cc2ccccc2C#N)c1=O [ALOGLIPTIN] | > 20 | > 20
55 | CCOC(=O)C1(c2ccccc2)CCCN(C)CC1 (centres undefined) [ETHOHEPTAZINE] | > 20 | > 20
56 | C[N+]1(C)C2CCC1CC(OC(=O)C(CO)c1ccccc1)C2 (centres undefined) | > 20 | > 20
57 | Nc1nc2[nH]cc(CCc3ccc(C(=O)N[C@@H](CCC(=O)O)C(=O)O)cc3)c2c(=O)[nH]1 [PEMETREXED] | > 20 | > 20
